Our source for the Ki values is article PMC4551558, “Differential inhibition of PDKs by phenylbutyrate and enhancement of pyruvate dehydrogenase complex activity by combination with dichloroacetate” (Journal of Inherited Metabolic Disease, 2015).

For one experiment, the target named is PDK3 (Homo sapiens, UniProt Q15120). As to the kind of experiment: […]-phosphate incorporation into recombinant E1alpha by recombinant human PDK3; Lineweaver-Burk kinetics. The experiment is classed as biochemical. To be noted: read-out: Ki (phenylbutyrate).
PDK3, sequence (Q15120 whole entry): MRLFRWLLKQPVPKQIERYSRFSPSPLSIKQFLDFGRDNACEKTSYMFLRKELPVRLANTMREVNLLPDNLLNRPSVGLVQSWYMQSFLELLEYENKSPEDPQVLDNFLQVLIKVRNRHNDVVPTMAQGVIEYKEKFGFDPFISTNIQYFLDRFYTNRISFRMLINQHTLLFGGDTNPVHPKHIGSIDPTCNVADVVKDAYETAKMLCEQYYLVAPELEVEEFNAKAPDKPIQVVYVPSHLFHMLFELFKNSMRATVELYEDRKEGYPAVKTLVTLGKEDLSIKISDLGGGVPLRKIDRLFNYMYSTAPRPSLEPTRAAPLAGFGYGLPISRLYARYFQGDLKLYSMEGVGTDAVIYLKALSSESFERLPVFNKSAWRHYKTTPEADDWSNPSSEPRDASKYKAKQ
PDK3, sequence (P08559 30-390 partner): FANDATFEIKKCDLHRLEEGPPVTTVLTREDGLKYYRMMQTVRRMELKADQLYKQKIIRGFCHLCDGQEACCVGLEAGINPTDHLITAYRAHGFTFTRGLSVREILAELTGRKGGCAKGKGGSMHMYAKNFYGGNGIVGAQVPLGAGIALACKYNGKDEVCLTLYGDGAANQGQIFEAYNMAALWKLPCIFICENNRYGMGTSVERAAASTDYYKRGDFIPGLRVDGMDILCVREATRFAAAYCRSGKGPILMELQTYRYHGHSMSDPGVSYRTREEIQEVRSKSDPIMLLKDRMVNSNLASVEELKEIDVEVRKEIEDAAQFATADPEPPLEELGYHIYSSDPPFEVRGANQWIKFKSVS
For a further experiment, the target named is PDK1 (Homo sapiens, UniProt Q15118). The experiment can be described thus: […]-phosphate incorporation into recombinant E1alpha by recombinant human PDK1; Lineweaver-Burk kinetics. The class given is biochemical. To be noted: read-out: Ki (phenylbutyrate).
PDK1, sequence (Q15118 29-436): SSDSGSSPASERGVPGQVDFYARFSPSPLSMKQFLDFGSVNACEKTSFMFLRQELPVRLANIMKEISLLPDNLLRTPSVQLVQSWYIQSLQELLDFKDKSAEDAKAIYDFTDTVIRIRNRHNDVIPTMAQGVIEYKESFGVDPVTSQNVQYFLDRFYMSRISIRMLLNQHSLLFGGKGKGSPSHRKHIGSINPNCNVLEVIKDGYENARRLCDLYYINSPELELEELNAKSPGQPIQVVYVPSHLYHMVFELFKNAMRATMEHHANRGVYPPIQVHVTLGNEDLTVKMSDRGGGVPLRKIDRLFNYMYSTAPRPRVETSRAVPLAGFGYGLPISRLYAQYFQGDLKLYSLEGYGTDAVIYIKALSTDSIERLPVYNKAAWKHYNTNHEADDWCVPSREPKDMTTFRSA
PDK1, sequence (P08559 30-390 partner): as the sequence (P08559 30-390 partner) above

As a reminder, the Ki is the dissociation constant of the complex between target and ligand, obtained from inhibition or displacement. Consider `O=C(O)CCCc1ccccc1` [PB, phenylbutyrate], for which the Ki at PDK3 was 0.98 ± 0.19 mM; on PDK1, 7.1 ± 0.15 mM.
